Test results from US11472806B2, “Substituted heterocyclic compounds as allosteric modulators of group II metabotropic glutamate receptors” (Domain Therapeutics, priority 2017, dated 2022).
Structures can show the parent of a compound that is named as a salt.

target: T1, human mGluR3 (hmGluR3) (Homo sapiens, UniProt Q14832); assay: Human mGluR3 positive allosteric modulator evaluation using Ca++ functional assay; format: cell-based; details: hmGluR3 transiently over-expressed in HEK-293 cells; cells stimulated by an EC50 glutamate concentration; intracellular Ca2+ (Fluo4AM, FLIPR Tetra)
T1 construct: expressed in transfected cells; host or cells: HEK-293 cells, transient co-transfection by electroporation
Procedure: Example 89: Human mGluR3 Positive Allosteric Modulator Evaluation Using Ca++ Functional Assay
Compounds of the present invention were tested successively for their agonist and positive allosteric modulator activities on human mGluR3 (hmGluR3) transiently over-expressed in HEK-293 cells. Compounds exert agonist activity if they are able to activate hmGluR3 by themselves, i.e., in absence of the endogenous agonist glutamate; and they exert positive allosteric modulator activity if they increase the action of the endogenous agonist glutamate.
Cell Culture and Transfection:
HEK-293 cells were maintained in Modified Eagle's Medium supplemented with 10% Foetal Calf Serum, 1% Penicillin/Streptomycin and 1% non-essential amino acids at 37° C./5% CO2. Cells were co-transfected by electroporation with four DNA plasmids encoding hmGluR3, a chimeric G protein allowing redirection of the activation signal toward intracellular calcium pathway, and two glutamate transporters so as to decrease extracellular glutamate levels and avoid receptor desensitization (Brabet I et al., Neuropharmacology 37(8), 1043-51, 1998). After transfection, cells were seeded in 75 cm^2 culture flasks, and cultured for 24 h.
Calcium Assa EC50 determination:
Receptor activity was detected by changes in intracellular calcium measured using the fluorescent Ca^2+ sensitive dye, Fluo4AM (Molecular Probes).
The day of the assay, medium was aspirated and replaced during 3 hrs by freshly prepared buffer B (HBSS 1×, Hepes 20 mM, MgSO4-7H2O 1 mM, Na2CO3 3.3 mM, CaCl2-2H2O 1.3 mM, 0.5% BSA, Probenecid 2.5 mM). Then, cells were loaded at 37° C./5% CO2 for 1.5 hrs with buffer B containing 1 μM Fluo4AM, 0.1 mg/mL Pluronic Acid, 7 μg/mL Glutamate Pyruvate Transaminase and 2 mM sodium pyruvate. Afterwards cells were washed with buffer B. Cells were then detached from the 75 cm^2 culture flasks with Accutase® (5 min incubation at 37° C.), centrifuged (5 min at 840 rpm), resuspended in buffer B and finally seeded at a density of 30,000 cells/well in black-walled clear-bottom 384-well plates. Addition of compounds on cells and intracellular Ca^2+ measurements (excitation 485 nm, emission 525 nm) were performed by the fluorescence microplate reader FLIPR Tetra (Molecular Devices).
Agonist and positive allosteric modulator activities of compounds were consecutively evaluated on the same cells plate. Agonist activity was first tested during 10 min with the addition of compound alone on the cells. Then, the cells were stimulated by an EC50 glutamate concentration and fluorescence was recorded for additional 3 min. EC50 glutamate concentration is the concentration giving 50% of the maximal glutamate response. Agonist and/or positive allosteric modulator activity(ies) were evaluated in comparison to basal signal or signal evoked by EC50 glutamate concentration alone, respectively.
For potency determination, a dose-response test was performed using 20 concentrations of each compound of the invention. Dose-response curves were fitted using the sigmoïdal dose-response (variable slope) analysis in XLfit Scientific Curve Fitting for Excel (IDBS). EC50 of agonist/EC50 of positive allosteric modulator activity(ies) were calculated. Dose-response experiments were all performed in duplicate, two times independently.

T1 sequence (Q14832 23-879): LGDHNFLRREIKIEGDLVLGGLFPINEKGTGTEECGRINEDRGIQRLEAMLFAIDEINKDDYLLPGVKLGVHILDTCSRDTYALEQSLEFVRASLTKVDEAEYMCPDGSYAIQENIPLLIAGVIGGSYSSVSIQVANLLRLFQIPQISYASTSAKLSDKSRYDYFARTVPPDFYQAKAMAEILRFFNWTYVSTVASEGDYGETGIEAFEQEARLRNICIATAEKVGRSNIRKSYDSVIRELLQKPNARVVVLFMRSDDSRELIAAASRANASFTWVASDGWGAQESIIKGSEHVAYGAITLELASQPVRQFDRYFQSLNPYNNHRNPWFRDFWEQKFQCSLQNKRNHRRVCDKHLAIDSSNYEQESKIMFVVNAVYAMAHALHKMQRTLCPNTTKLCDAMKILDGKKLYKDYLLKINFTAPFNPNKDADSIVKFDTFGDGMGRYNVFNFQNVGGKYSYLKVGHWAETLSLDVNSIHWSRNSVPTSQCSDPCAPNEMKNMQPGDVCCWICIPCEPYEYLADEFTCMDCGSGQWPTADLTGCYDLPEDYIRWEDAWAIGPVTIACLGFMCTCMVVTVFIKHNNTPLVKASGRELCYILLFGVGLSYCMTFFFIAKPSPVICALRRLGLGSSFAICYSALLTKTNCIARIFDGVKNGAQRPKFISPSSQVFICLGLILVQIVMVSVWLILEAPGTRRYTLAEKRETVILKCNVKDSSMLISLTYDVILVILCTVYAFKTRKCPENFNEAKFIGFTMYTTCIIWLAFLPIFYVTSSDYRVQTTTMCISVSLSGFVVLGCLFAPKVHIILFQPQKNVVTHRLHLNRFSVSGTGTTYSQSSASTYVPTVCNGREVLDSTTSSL

| EC50 | Compound |
| --- | --- |
| < 100 nM | COCn1cc2c(n1)C(=O)N(C)C1(CC1)c1ccc(-c3ccc(F)cn3)cc1-2 [Example 76, 2-(Methoxymethyl)-5-methyl-9-(5-fluoro-pyridin-2-yl)-2H-spiro[benzo[c]pyrazolo[4,3-e]azepine-6,1′-cyclopropan]-4(5H)-one] |
| 100 to 1000 nM | Cc1ccc2c(n1)C(=O)N(C)Cc1ccc(-c3cccnc3C)cc1-2 [Example 41, 3,6-Dimethyl-10-(2-methyl-pyridin-3-yl)-6,7-dihydro-4,6-diaza-dibenzo[a, c]cyclohepten-5-one] |
| 1000 to 10000 nM | Cc1ncccc1-c1ccc2c(c1)-c1cn(C)nc1C(=O)N(C)C2 [Example 68, 2,5-Dimethyl-9-(2-methyl-pyridin-3-yl)-5,6-dihydro-2H-2,3,5-triaza-benzo[e]azulen-4-one] |
| 100 to 1000 nM | CN1Cc2ccc(-c3cccc(C#N)c3)cc2-c2cccnc2C1=O [Example 25, 3-(6-Methyl-5-oxo-6,7-dihydro-5H-4,6-diaza-dibenzo[a,c]cyclohepten-10-yl)-benzonitrile] |

tested on: not given; assay: not given; details: not given

| melting point | Compound |
| --- | --- |
| > 250 °C | Cc1ncccc1-c1cnc2c(c1)-n1cccc1C(=O)N(C)C2 (as salt: hydrochloride) [Example 6, 5-Methyl-9-(2-methyl-pyridin-3-yl)-5,6-dihydro-5,7,10b-triaza-benzo[e]azulen-4-one, dihydrochloride] |
| 219 to 223 °C | COCn1cc2c(n1)C(=O)N(C)C1(CC1)c1ccc(-c3ccc(F)cn3)cc1-2 [Example 76, 2-(Methoxymethyl)-5-methyl-9-(5-fluoro-pyridin-2-yl)-2H-spiro[benzo[c]pyrazolo[4,3-e]azepine-6,1′-cyclopropan]-4(5H)-one] |
| > 250 °C | Cc1ncccc1-c1ccc2c(c1)-c1ccccc1C(=O)N(C)C21CC1 (as salt: hydrochloride) [Example 21, 10-(2-Methyl-pyridin-3-yl)-6-methyl-6,7-dihydro-spiro[dibenzo[c,e]azepine-7,1′-cyclopropan]-5-one, hydrochloride] |
| > 250 °C | Cc1ncccc1-c1cnc2c(n1)-n1cccc1C(=O)N(C)C2 (as salt: hydrochloride) [Example 7, 5-Methyl-9-(2-methyl-pyridin-3-yl)-5,6-dihydro-5,7,10,10b-tetraaza-benzo[e]azulen-4-one, dihydrochloride] |
| 198 to 200 °C | COCn1cc2c(n1)C(=O)N(C)C1(CC1)c1ccc(-c3ccc(F)nc3)cc1-2 [Example 75, 2-(Methoxymethyl)-5-methyl-9-(6-fluoro-pyridin-3-yl)-2H-spiro[benzo[c]pyrazolo[4,3-e]azepine-6,1′-cyclopropan]-4(5H)-one] |
| > 250 °C | Cc1ncccc1-c1cc2c(nn1)CN(C)C(=O)c1cccn1-2 (as salt: hydrochloride) [Example 8, 5-Methyl-9-(2-methyl-pyridin-3-yl)-5,6-dihydro-5,7,8,10b-tetraaza-benzo[e]azulen-4-one, dihydrochloride] |
